# Experimental data as given in patent publication US9861625B2, “Methods and compositions for treating cancer through inhibition of PI3K” (Duke University, priority 2014, dated 2018).
# What was measured:
# Assay type in all cases: cell-based
# CA46 = test: MTT cell viability assay; conditions: Homo sapiens; CA46, Burkitt Lymphoma, RPMI 10% FBS
# Source text: (§1) A total of 60 cell lines representative of different cancer types were obtained from the ATCC and grown and maintained in accordance with the provided guidelines. The cell lines represented the following distinct histologies: mantle cell lymphoma (5 lines: JVM13, Rec1, Mino, JVM2, Jeko); germinal center B-cell derived (“GCB”) DLBCL (19 lines: Farage, BJAB, Ly1, Ly2, Ly7, Ly8, Ly19, HBL2, HT, Karpas422, Pfeiffer, RCK8, RL, Sci-1, Ski, SUDHL4, SUDHL7, Toledo, WSU-NHL); primary mediastinal B-cell lymphoma (“PMBL”) (3 lines: K1106, MEDB1, U2940); Burkitt lymphoma (11 lines: Daudi, CA46, EB1, EB2, EB3, Jijoye, Raji, Ramos, Namwala, BL2, BL41); Hodgkin lymphoma (3 lines: RMPI6666, L1236, L428); activated B-cell derived (“ABC”) DLBCL (6 lines: Ly3, HBL1, TMD8, Ly10, Riva, U2932); multiple myeloma (6 lines: U266, SKMM1, RPMI8226, KMS12, IM9, H929); acute myelogenous leukemia (“AML”) (2 lines: U937, KG1); acute lymphoblastic leukemia (“ALL”) (2 lines: Reh, SR); and T-cell lymphoma (3 lines: Molt4, RPMI8402, Jurkat). The cell lines were tested within six months after resuscitation.
# (§2) The 3-(4,5-dimethylthiazol-2-yl)-2,5-diphenyltetrazolium bromide (MTT) cell viability assay was used to determine cell viability in response to drug treatment. Five replicates per concentration tested were carried out in serial dilutions with a total of ten concentrations with a 50% reduction in drug concentration per dilution for each plate. A total of 15 μl of MTT reagent was added to each drug-treated well and incubated for three hours in 37° C. Detergent was added to each drug-treated well and incubated overnight at room temperature without exposure to light. Absorbance was measured at 570 nm using a plate reader from Tecan Group. The IC50 concentration was determined using the publicly available ED50 plus v1.0 software program.
# EB3 = test: MTT cell viability assay; conditions: Homo sapiens, EB-3; EB3, Burkitt Lymphoma, RPMI 10% FBS
# Source text: as §1, §2
# Farage = test: MTT cell viability assay; conditions: GCB DLBCL, RPMI 10% FBS
# Source text: as §1, §2
# H929 = test: MTT cell viability assay; conditions: Homo sapiens, NCI-H929; H929, Multiple Myeloma, RPMI 10% FBS
# Source text: as §1, §2
# K1106 = test: MTT cell viability assay; conditions: K1106, PMBL, RPMI 15% FBS
# Source text: as §1, §2
# LY3 = test: MTT cell viability assay; conditions: LY3, ABC DLBCL, OCI
# Source text: as §1, §2
# Molt 4 = test: MTT cell viability assay; conditions: Homo sapiens; Molt 4, T-cell, RPMI 10% FBS
# Source text: as §1, §2
# Reh = test: MTT cell viability assay; conditions: Homo sapiens, ALL, RPMI 10% FBS
# Source text: as §1, §2
# [1] = tested on: Sixty cell lines representing blood cancer histologies; test: Sensitivity to PI3K inhibition in sixty cancer cell lines (MTT); conditions: BKM120 and BEZ235 in all 60 cell lines; BGT226 in 31 cell lines; read-out: observed IC50s, range over the cell lines
# Source text: as §1
# as §2, with “program. […]” for “program.”
# [2] = tested on: PI3K pathway (p-AKT, p-S6, p-GSKalpha, p-GSKbeta) in BJAB DLBCL cells; test: Confirmation of pathway downregulation (Western blot) in BJAB; conditions: for inhibition of the PI3K pathway: BJAB, time-course and dose-escalation experiments
# Experimental: RIPA lysis buffer (1×PBS, 1% NP-40, 0.5% sodium deoxycholate, 0.1% SDS, 10 mmol/L sodium orthovanadate) was added to 750,000 cells and incubate on ice for 30 minutes. The mixture was spun down, and the supernatant was transferred to a new tube as the whole-cell extract. A total of 20 μg cell lysate was separated on a 4% to 18% Tris-Bis NuPAGE gel (Invitrogen) and transferred using the iBlot transfer device (Invitrogen) program 3 for seven minutes. The blots were probed with a 1:100 p-AKT, 1:1000 total AKT, 1:100p-GSK3alpha, 1:100 p-GSK3beta, or 1:100 p-s6 (Cell Signaling), or 1:5000 goat anti-β-actin (SC-47778, Santa Cruz Biotech) for one hour at room temperature. The antibodies were detected by the use of 1:10,000 goat anti-mouse-HRP conjugated antibodies (Santa Cruz Biotech). Western Blotting Luminol Reagent (Santa Cruz Biotech) was used to visualize the bands corresponding to each antibody.
# One million BJAB DLBCL cells were treated with increasing doses of BEZ235, and, after six hours, the cells were analyzed for a dose-dependent effect at 15, 30, 60, 125, 250, and 500 nmol/L concentrations. Cell count and viability were measured for each concentration. […] Western blot analyses were performed to assess phosphorylation of AKT, GSK3alpha, GSK3beta, and S6.
# Inhibition of the PI3K pathway by the three PI3K inhibitors was confirmed through separate time-course and dose-escalation experiments, as well as by measuring the expression of key downstream members of the pathway. The drugs were tested in the BJAB DLBCL for their effects on p-AKT, p-S6, p-GSKalpha, and p-GSKbeta. […] An associated decrease in cell viability was ruled out by quantifying the proportion of viable cells at each time point using trypan blue staining.
Structure (SMILES),IC50 (CA46) [µM],IC50 (EB3) [µM],IC50 (Farage) [µM],IC50 (H929) [µM],IC50 (K1106) [µM],IC50 (LY3) [µM],IC50 (Molt 4) [µM],IC50 (Reh) [µM],IC50 [1] [µM],"down regulation of PI3K targets, time course ([2]; 30 nmol/L BEZ235, three and six hours after treatment, total AKT and actin unchanged)",inhibition of the PI3K pathway [2]
Cn1c(=O)n(-c2ccc(C(C)(C)C#N)cc2)c2c3cc(-c4cnc5ccccc5c4)ccc3ncc21 [BEZ235],0.0284,0.0368,0.509,0.113,0.536,0.08,0.168,0.484,0.01 to 9,time-dependent down regulation,directly inhibit the PI3K pathway
COc1ccc(-c2ccc3ncc4c(c3c2)n(-c2ccc(N3CCNCC3)c(C(F)(F)F)c2)c(=O)n4C)cn1 [BGT226],0.0276,0.0445,0.162,0.0036,0.0182,0.0204,0.008,0.0134,0.003 to 0.2,,directly inhibit the PI3K pathway
Nc1cc(C(F)(F)F)c(-c2cc(N3CCOCC3)nc(N3CCOCC3)n2)cn1 [BKM120],0.729,0.655,0.752,1.2,1.87,0.893,1.11,1.02,0.2 to 7.8,,directly inhibit the PI3K pathway
